According to US9890171B2, “Aldosterone synthase inhibitors” (Boehringer Ingelheim International GmbH, priority 2014, dated 2018):

What follows are molecules tested against aldosterone synthase (CYP11B2) (Macaca fascicularis, UniProt A0A2K5UPL9) (assay: aldosterone synthase inhibition assay). Conditions: cynomolgus adrenal gland mitochondria, 2 μM corticosterone, aldosterone quantified by mass spectrometry.
Type: biochemical, cynomolgus monkey
Outline: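 Cynomolgus adrenal mitochondria ([…]) used as CYP11B2 source with 2 μM corticosterone in 100 mM potassium phosphate pH 7.4, 1% DMSO; reaction started with 1 mM NADPH, run 60-90 min at 37° C. Aldosterone measured by mass spectrometry; IC50 from 4-parameter logistic fit, no-NADPH blank as 0%.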

aldosterone synthase (CYP11B2), sequence (A0A2K5UPL9 1-503): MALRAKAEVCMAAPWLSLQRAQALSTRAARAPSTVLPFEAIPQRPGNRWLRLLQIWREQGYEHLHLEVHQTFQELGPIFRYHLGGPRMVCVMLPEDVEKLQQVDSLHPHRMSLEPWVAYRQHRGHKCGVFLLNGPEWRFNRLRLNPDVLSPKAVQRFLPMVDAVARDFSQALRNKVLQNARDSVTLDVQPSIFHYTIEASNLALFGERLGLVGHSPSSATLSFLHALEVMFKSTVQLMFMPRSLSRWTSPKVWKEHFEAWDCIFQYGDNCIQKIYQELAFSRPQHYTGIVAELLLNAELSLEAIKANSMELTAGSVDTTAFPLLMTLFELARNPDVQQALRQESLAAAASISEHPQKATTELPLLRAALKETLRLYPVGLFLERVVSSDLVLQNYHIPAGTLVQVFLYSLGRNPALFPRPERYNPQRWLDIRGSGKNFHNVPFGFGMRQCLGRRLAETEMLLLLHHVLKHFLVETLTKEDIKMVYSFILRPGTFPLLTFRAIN

SMILES	IC50
CCC(=O)NC1COCc2c(-c3cc4c(cnn4C)cc3F)cncc21 (single isomer, unassigned) [Compound 193, N-[8-(5-Fluoro-1-methyl-1H-indazol-6-yl)-3,4-dihydro-1H-pyrano[4,3-c]pyridin-4-yl]-propionamide]	38 nM
CCC(=O)NC1COCc2c(-c3ccc4c(c3)COCC4(F)F)cncc21 (single isomer, unassigned) [Compound 194, N-[8-(4,4-Difluoro-isochroman-7-yl)-3,4-dihydro-1H-pyrano[4,3-c]pyridin-4-yl]-propionamide]	38 nM
CCS(=O)(=O)NC1COCc2c(-c3cc4c(cnn4C)cc3F)cncc21 (single isomer, unassigned) [Compound 195, Ethanesulfonic acid [8-(5-fluoro-1-methyl-1H-indazol-6-yl)-3,4-dihydro-1H-pyrano[4,3-c]pyridin-4-yl]-amide]	140 nM
CCS(=O)(=O)NC1COCc2c(-c3ccc4c(c3)COCC4(F)F)cncc21 (single isomer, unassigned) [Compound 196, Ethanesulfonic acid [8-(4,4-difluoro-isochroman-7-yl)-3,4-dihydro-1H-pyrano[4,3-c]pyridin-4-yl]-amide]	330 nM
Cn1nnc2ccc(-c3cncc4c3COC3(CC3)C4O)cc21 (single isomer, unassigned) [Compound 197, 8-(3-methylbenzotriazol-5-yl)spiro[1,4-dihydropyrano[4,3-c]pyridine-3,1′-cyclopropane]-4-ol]	18 nM
Cn1nnc2ccc(-c3cncc4c3COC3(CC3)C4O)cc21 (single isomer, unassigned) [Compound 198, 8-(3-methylbenzotriazol-5-yl)spiro[1,4-dihydropyrano[4,3-c]pyridine-3,1′-cyclopropane]-4-ol]	19 nM
OC1COCc2c(-c3ccc4c(c3)COCC4(F)F)cncc21 (single isomer, unassigned) [Compound 199, 8-(4,4-Difluoro-isochroman-7-yl)-3,4-dihydro-1H-pyrano[4,3-c]pyridin-4-ol]	22 nM
OC1COCc2c(-c3ccc4c(c3)COCC4(F)F)cncc21 (single isomer, unassigned) [Compound 200, 8-(4,4-Difluoro-isochroman-7-yl)-3,4-dihydro-1H-pyrano[4,3-c]pyridin-4-ol]	279 nM
Cn1ncc2ccc(-c3cncc4c3COCC4C#N)cc21 (stereo not drawn) [Compound 9, 8-(1-Methyl-1H-indazol-6-yl)-3,4-dihydro-1H-pyrano[4,3-c]pyridine-4-carbonitrile]	5.7 nM
NC(=O)N1CCCc2cc(-c3cncc4c3COCC4O)cnc21 (stereo not drawn) [Compound 102, 6-(4-Hydroxy-3,4-dihydro-1H-pyrano[4,3-c]pyridin-8-yl)-3,4-dihydro-2H-[1,8]naphthyridine-1-carboxylic acid amide]	64.9 nM
NC(=O)N1CCCc2cc(-c3cncc4c3C(O)COC4)cnc21 (stereo not drawn) [Compound 160, 6-(4-Hydroxy-3,4-dihydro-1H-pyrano[3,4-c]pyridin-5-yl)-3,4-dihydro-2H-[1,8]naphthyridine-1-carboxylic acid amide]	51.1 nM
CCS(=O)(=O)NC1COCc2c(-c3ccc4c(c3)CCC4O)cncc21 (stereo not drawn) [Compound 184, Ethanesulfonic acid [8-(1-hydroxy-indan-5-yl)-3,4-dihydro-1H-pyrano[4,3-c]pyridin-4-yl]-amide]	124 nM
